The source of these data is ChEMBL document CHEMBL1201862, “PubChem BioAssay data set” (2004).

Among the test systems are UACC-62; M14; ACHN; SK-MEL-28; SK-OV-3; NCI/ADR-RES; OVCAR-5; A549; OVCAR-8; Malme-3M; HCT-15; SF-539; U-251; NCI-H23; OVCAR-3; 786-0; DU-145; MCF7; K562; T47D.
What all share (test): growth of human tumour cells (NCI), 48 h

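All cell lines were grown in 96-well plates and treated with compound for 48 hours. GI50 = concentration required for 50% inhibition of growth.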 Active and inactive are the calls of the source. Cut-off read from the data, not from the text of the source: active = GI50 up to about 1.1 µM and inactive = higher.

For `CC(C)(C)OC(=O)[C@H]1CCC(=S)N1Cc1ccccc1`, the GI50 in the experiment with UACC-62, in the experiment with M14, with ACHN, in the experiment on SK-MEL-28, with SK-OV-3 and with NCI/ADR-RES was > 100 µM (inactive) in each case. Also, the GI50 with OVCAR-5 is > 100 µM (inactive); in the experiment with A549 it was > 100 µM (inactive); with OVCAR-8 it was > 100 µM (inactive); in the experiment with Malme-3M it was > 100 µM (inactive); in the experiment on HCT-15, > 100 µM; in the experiment with SF-539, > 100 µM (inactive). The GI50 in the experiment with U-251, with NCI-H23, in the experiment with OVCAR-3, in the experiment on 786-0, in the experiment on DU-145 and in the experiment with MCF7 was > 100 µM (inactive) in each case.
As for `CNc1nnc(CNc2ccc(-c3nnc(NC)n3N)cc2)n1N`, the GI50 with M14, in the experiment with ACHN, with SK-MEL-28, in the experiment with SK-OV-3, in the experiment with NCI/ADR-RES and in the experiment on OVCAR-5 was > 100 µM (inactive) throughout. Moreover, the GI50 in the experiment with A549 was > 100 µM (inactive); in the experiment on OVCAR-8, > 100 µM (inactive); in the experiment on HCT-15, > 100 µM; in the experiment on SF-539, > 100 µM (inactive); in the experiment with U-251 it was > 100 µM (inactive); in the experiment on NCI-H23 it was > 100 µM (inactive). Also, the GI50 in the experiment on OVCAR-3, in the experiment with 786-0, with DU-145, in the experiment with MCF7 and in the experiment with K562 was > 100 µM (inactive) throughout.
On to `Clc1cccc(/N=C/C=C/Nc2cccc(Cl)c2)c1`, for which the GI50 in the experiment with ACHN was > 10 µM (inactive); in the experiment on SK-MEL-28 it was 16.1 µM (inactive); in the experiment with NCI/ADR-RES, 16.9 µM (inactive); in the experiment on OVCAR-5 it was 24.8 µM (inactive); in the experiment with A549 it was 28.5 µM (inactive); in the experiment with OVCAR-8, 18 µM (inactive). The GI50 with Malme-3M is > 10 µM (inactive); with HCT-15 it was 17.8 µM; in the experiment on SF-539, 17.2 µM (inactive); in the experiment with U-251, 16.5 µM (inactive); in the experiment on NCI-H23, 21.3 µM (inactive); in the experiment on OVCAR-3 it was 18.3 µM (inactive). Besides, the GI50 in the experiment with 786-0 was 15.7 µM (inactive); in the experiment on DU-145 it was 29 µM (inactive); in the experiment with MCF7, 18.8 µM (inactive).
On to `Cc1nc2sccn2c1C(=O)OCCOCCOCCOCCOC(=O)c1c(C)nc2sccn12`, for which the GI50 in the experiment with UACC-62 was 38.6 µM (inactive); in the experiment on M14, 43.4 µM (inactive); with ACHN it was > 100 µM (inactive); in the experiment with SK-MEL-28, 90.2 µM (inactive); in the experiment on NCI/ADR-RES it was 27.9 µM (inactive); in the experiment on OVCAR-5, > 100 µM (inactive). Also, the GI50 was > 100 µM (inactive) in the experiment on A549; 39.6 µM (inactive) with OVCAR-8; > 100 µM (inactive) in the experiment on Malme-3M; > 100 µM in the experiment on HCT-15; 77.4 µM (inactive) with SF-539; > 100 µM (inactive) in the experiment on U-251. For the same molecule, the GI50 in the experiment on NCI-H23 was 19.5 µM (inactive); in the experiment with OVCAR-3, > 100 µM (inactive); in the experiment on 786-0, > 100 µM (inactive); with DU-145 it was > 100 µM (inactive); with MCF7 it was 61.5 µM (inactive); with K562 it was 35.5 µM (inactive).
In the case of `CN1C(=O)C(O)CC1c1ccccc1C(F)(F)F` (configuration not stated), the GI50 with UACC-62, in the experiment with M14, in the experiment with ACHN, in the experiment with SK-MEL-28, with SK-OV-3 and with NCI/ADR-RES was > 100 µM (inactive) each time. The GI50 with OVCAR-5 was > 100 µM (inactive); in the experiment with A549, > 100 µM (inactive); in the experiment with OVCAR-8, > 100 µM (inactive); in the experiment with Malme-3M, > 100 µM (inactive); with HCT-15 it was > 100 µM; with SF-539, > 100 µM (inactive). In addition, the GI50 in the experiment on U-251, with NCI-H23, in the experiment on OVCAR-3, with 786-0, in the experiment with DU-145 and in the experiment on MCF7 was > 100 µM (inactive) throughout.
As to `O=C1CN(C(=O)c2ccccc2)Cc2[nH]c3ccccc3c21`, the GI50 in the experiment with UACC-62, with M14, in the experiment with ACHN, with SK-MEL-28, with SK-OV-3 and in the experiment with OVCAR-5 was > 100 µM (inactive) in each case. In addition, the GI50 with A549 was > 100 µM (inactive); with OVCAR-8, > 100 µM (inactive); in the experiment with Malme-3M it was > 100 µM (inactive); in the experiment with HCT-15, > 100 µM; with SF-539 it was > 100 µM (inactive); in the experiment with U-251, > 100 µM (inactive). Also, the GI50 in the experiment with NCI-H23, in the experiment with OVCAR-3, in the experiment on 786-0 and in the experiment on K562 was > 100 µM (inactive) in each case.
Take `CCOC(=O)C(C)(c1cn(C)c2ccccc12)c1cn(C)c2ccccc12`: the GI50 is 87.9 µM (inactive) with UACC-62; > 100 µM (inactive) in the experiment on M14; 77.1 µM (inactive) in the experiment with ACHN; > 100 µM (inactive) in the experiment on SK-MEL-28; > 100 µM (inactive) in the experiment on SK-OV-3; > 100 µM (inactive) in the experiment with OVCAR-5. Besides, the GI50 in the experiment with A549 is 81.5 µM (inactive); with OVCAR-8 it was 52.2 µM (inactive); in the experiment on Malme-3M it was 67.3 µM (inactive); in the experiment with HCT-15, > 100 µM; with SF-539, 49.7 µM (inactive); in the experiment with U-251, 57.5 µM (inactive). For the same molecule, the GI50 with NCI-H23 was 44.7 µM (inactive); with OVCAR-3, 45.8 µM (inactive); with 786-0, 69.2 µM (inactive); with K562 it was 66.2 µM (inactive).
On to `C=Nc1ccc([N+](=O)[O-])cc1`, for which the GI50 in the experiment with UACC-62 is > 84.5 µM (inactive); with M14 it was > 100 µM (inactive); in the experiment on ACHN, > 100 µM (inactive); with SK-MEL-28 it was > 100 µM (inactive); with SK-OV-3 it was > 100 µM (inactive); with OVCAR-5 it was > 100 µM (inactive). Besides, the GI50 in the experiment on A549 is > 100 µM (inactive); in the experiment on OVCAR-8, > 100 µM (inactive); in the experiment on Malme-3M it was > 100 µM (inactive); in the experiment on HCT-15 it was > 60.1 µM; in the experiment with SF-539 it was > 100 µM (inactive); in the experiment on U-251, > 100 µM (inactive). Also, the GI50 in the experiment with NCI-H23 is > 100 µM (inactive); with OVCAR-3, > 100 µM (inactive); in the experiment with 786-0, > 100 µM (inactive); with K562, > 44.6 µM (inactive).
Take `COc1cc(C(=O)N[C@H]2CCc3cc(OC)c(OC)c(OC)c3-c3ccc(SC)c(=O)cc32)cc(OC)c1OC`: the GI50 with UACC-62 was 0.0316 µM (active); in the experiment with M14, 0.00832 µM (active); in the experiment on ACHN it was 0.136 µM (active); in the experiment on SK-MEL-28, 12.3 µM (inactive); in the experiment on SK-OV-3 it was 0.00655 µM (active); with OVCAR-5 it was 0.0107 µM (active). The GI50 is 0.0813 µM (active) in the experiment with A549; 0.00813 µM (active) in the experiment on OVCAR-8; 0.02 µM (active) in the experiment with Malme-3M; 0.444 µM with HCT-15; 0.00515 µM (active) in the experiment on SF-539; 0.0116 µM (active) in the experiment on U-251. Also, the GI50 in the experiment with NCI-H23 was 0.00589 µM (active); in the experiment with OVCAR-3, 0.00502 µM (active); in the experiment with 786-0 it was 0.0223 µM (active); in the experiment with K562, 0.00583 µM (active).
Take `CC(CO)CCC(O)C(C)(O)C1CCC2(O)C3=CC(=O)C4CC(O)C(O)CC4(C)C3CCC12C` (configuration not stated): the GI50 with UACC-62, in the experiment with M14, in the experiment with ACHN, with SK-MEL-28, in the experiment on SK-OV-3 and in the experiment with NCI/ADR-RES was > 100 µM (inactive) each time. The GI50 is > 100 µM (inactive) in the experiment with OVCAR-5; > 100 µM (inactive) with A549; > 100 µM (inactive) with OVCAR-8; > 100 µM (inactive) with Malme-3M; > 100 µM in the experiment on HCT-15; > 100 µM (inactive) in the experiment with SF-539. The GI50 in the experiment on U-251, with NCI-H23, in the experiment on OVCAR-3, in the experiment on 786-0, in the experiment with DU-145 and in the experiment with MCF7 was > 100 µM (inactive) throughout. The GI50 in the experiment on K562 is > 100 µM (inactive).
In the case of `CN(C)CS/C(N)=N\C(O)C(Cl)(Cl)Cl` (configuration not stated), the GI50 in the experiment with UACC-62, in the experiment on T47D, with M14, in the experiment with ACHN, in the experiment with SK-MEL-28 and in the experiment on NCI/ADR-RES was > 100 µM (inactive) each time. The GI50 was > 100 µM (inactive) in the experiment on OVCAR-5; > 100 µM (inactive) in the experiment on A549; > 100 µM (inactive) in the experiment on OVCAR-8; > 100 µM (inactive) in the experiment on Malme-3M; > 100 µM in the experiment on HCT-15; > 100 µM (inactive) in the experiment with U-251. For the same molecule, the GI50 in the experiment on NCI-H23, in the experiment on OVCAR-3, in the experiment with 786-0, in the experiment on DU-145 and with K562 was > 100 µM (inactive) throughout.
For `Oc1c(NCn2nc(CCCCCCCCc3nn(CNc4ccc5ccccc5c4O)c(=S)o3)oc2=S)ccc2ccccc12`, the GI50 in the experiment with UACC-62 is 68.4 µM (inactive); in the experiment on M14, 34.8 µM (inactive); with ACHN it was > 100 µM (inactive); with SK-MEL-28 it was 49.7 µM (inactive); with SK-OV-3, > 100 µM (inactive); in the experiment on NCI/ADR-RES it was 44.5 µM (inactive). The GI50 is 43.9 µM (inactive) in the experiment on OVCAR-5; 44.4 µM (inactive) with A549; 75.2 µM (inactive) in the experiment with Malme-3M; 35.6 µM in the experiment on HCT-15; 86.5 µM (inactive) in the experiment with U-251; 97.5 µM (inactive) with NCI-H23. Besides, the GI50 with 786-0 is 63.2 µM (inactive); in the experiment on DU-145, > 100 µM (inactive); in the experiment with MCF7, 67.6 µM (inactive); in the experiment on K562, > 100 µM (inactive).
